Here are results for 20 molecules from patent US8344010B2, “Fused imidazole derivatives as TRPV3 antagonist” (Glenmark Pharmaceuticals S.A., priority 2008, dated 2013).

Bounds are passed on as bounds.

For this experiment, the target named is T1, Human TRPV3 (Homo sapiens, UniProt Q8NET8).
T1 construct: expressed in transfected cells; host or cells: CHO cells (selected with G-418)
T1 sequence (Q8NET8 1-790): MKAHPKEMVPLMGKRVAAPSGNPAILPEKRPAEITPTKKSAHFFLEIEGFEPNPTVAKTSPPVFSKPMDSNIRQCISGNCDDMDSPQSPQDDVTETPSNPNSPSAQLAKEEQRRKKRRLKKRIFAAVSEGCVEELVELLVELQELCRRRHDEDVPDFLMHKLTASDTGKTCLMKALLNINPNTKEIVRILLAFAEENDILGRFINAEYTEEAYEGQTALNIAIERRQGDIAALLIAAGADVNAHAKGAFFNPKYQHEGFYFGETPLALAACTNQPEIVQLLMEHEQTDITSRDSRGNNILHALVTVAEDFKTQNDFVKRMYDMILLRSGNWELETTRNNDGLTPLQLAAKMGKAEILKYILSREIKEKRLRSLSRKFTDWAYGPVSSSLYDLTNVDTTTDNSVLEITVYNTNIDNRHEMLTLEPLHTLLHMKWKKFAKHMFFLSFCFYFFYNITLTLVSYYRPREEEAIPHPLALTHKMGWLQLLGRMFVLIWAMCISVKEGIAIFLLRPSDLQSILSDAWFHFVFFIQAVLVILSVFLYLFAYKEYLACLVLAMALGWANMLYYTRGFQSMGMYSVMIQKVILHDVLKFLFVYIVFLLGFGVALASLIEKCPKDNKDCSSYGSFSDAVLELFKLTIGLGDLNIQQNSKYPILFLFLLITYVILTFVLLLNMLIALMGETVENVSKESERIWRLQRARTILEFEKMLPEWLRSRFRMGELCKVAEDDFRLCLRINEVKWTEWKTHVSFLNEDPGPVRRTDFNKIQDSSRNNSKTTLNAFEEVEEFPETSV
The experiment can be described thus: 45Calcium uptake assay: inhibition of 2-APB induced cellular uptake of radioactive calcium. In kind it is cell-based. The note with it: human TRPV3 expressing CHO cells, 2-APB 500 μM; for inhibition at 1 µM: 1 μM test compound, read-out: Percentage Inhibition (1 μM); for inhibition at 10 µM: 10 μM test compound, read-out: Percentage Inhibition (10 μM); for IC50: class symbol. The method, boiled down:
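CHO cells expressing human TRPV3 were preincubated with compound for 10 min (0.5% DMSO final), then given 500 μM 2-APB plus 5 μCi/ml 45Ca2+ for 4 min. Lysate radioactivity was counted by scintillation; responses as % of maximal without antagonist, with IC50 by nonlinear regression.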

As usually defined, the inhibition is the percentage by which the read-out fell short of the control. `COc1cccc(/C=C/c2nc3ccccc3n2-c2ccc(C(F)(F)F)cn2)c1OC1CCCC1` [Example 27, 2-[(E)-2-(2-Cyclopentyloxy-3-methoxyphenyl)vinyl]-1-[5-(trifluoromethyl)pyridin-2-yl]-1H-benzimidazole]: the inhibition at 1 µM came out at 41.8% and the inhibition at 10 µM stood at 94.7%.

`COC(=O)c1ccc(-n2c(/C=C/c3cccc(OC)c3OC3CCCC3)nc3ccc(F)cc32)nc1` [Example 60, Methyl 6-{2-[(E)-2-(2-Cyclopentyloxy-3-methoxyphenyl)vinyl]-6-fluoro-1H-benzimidazol-1-yl}nicotinate]: the inhibition at 1 µM came to 32.1% and the inhibition at 10 µM was found to be 30.2%.

Take `CCCCCOc1c(/C=C/c2nc3cc(Cl)cnc3n2-c2ccc(C#N)cn2)cccc1OC(F)F` [Example 101, 6-(6-Chloro-2-{(E)-2-[3-(difluoromethoxy)-2-pentyloxyphenyl]vinyl}-3H-imidazo[4,5-b]pyridin-3-yl)nicotinonitrile]: the inhibition at 1 µM stood at 30.3% and the inhibition at 10 µM amounted to 85.2%.

As a reminder, the IC50 is the point on the concentration scale where inhibition reaches its midpoint. On to `COc1cccc(/C=C/c2nc3cc(Cl)cnc3n2-c2ccc(C#N)cn2)c1OCC1CCC1` [Example 94, 6-(6-Chloro-2-{(E)-2-[2-(cyclobutylmethoxy)-3-methoxyphenyl]vinyl}-3H-imidazo[4,5-b]pyridin-3-yl)nicotinonitrile], for which the inhibition at 1 µM was found to be 94.5%, the inhibition at 10 µM is 98% and the IC50 was in the range of 50 to 100 nM.

For the molecule `CCC(CC)Oc1c(/C=C/c2nc3cc(F)c(F)cc3n2-c2ccc(C#N)cn2)cccc1OC` [Example 77, 6-{2-[(E)-2-(2-(1-ethylpropoxy)-3-methoxyphenyl)vinyl]-5,6-difluoro-1H-benzimidazol-1-yl}nicotinonitrile], the inhibition at 1 µM was found to be 93.2%, the inhibition at 10 µM worked out at 98.7% and the IC50 was in the range of 50 to 100 nM.

For the molecule `N#Cc1ccc(-n2c(/C=C/c3cccc(OC(F)F)c3OC3CCCC3)nc3cccnc32)nc1` [Example 98, 6-(2-{(E)-2-[2-(Cyclopentyloxy)-3-difluoromethoxyphenyl]vinyl}-3H-imidazo[4,5-b]pyridin-3-yl)nicotinonitrile], the inhibition at 1 µM is 95.9%, the inhibition at 10 µM was 100% and the IC50 lay in the range of 100 to 500 nM.

Regarding `CCCCCOc1c(/C=C/c2nc3cc(Cl)cnc3n2-c2ccc(C#N)cn2)cccc1OC` [Example 93, 6-{6-Chloro-2-[(E)-2-(2-pentyloxy-3-methoxyphenyl)vinyl]-3H-imidazo[4,5-b]pyridin-3-yl}nicotinonitrile], the inhibition at 1 µM was 95.2%, the inhibition at 10 µM came to 97.6% and the IC50 was in the range of 50 to 100 nM.

Consider `COc1cccc(/C=C/c2nc3ccccc3n2-c2ccc([N+](=O)[O-])cn2)c1OC1CCCC1` [Example 4, 2-[(E)-2-(2-[Cyclopentyloxy]-3-methoxyphenyl)vinyl]-1-(5-nitropyridin-2-yl)-1H-benzimidazole], for which the inhibition at 1 µM amounted to 50.9% and the inhibition at 10 µM was determined as 81.7%.

For the molecule `COc1cccc(/C=C/c2nc3ccccc3n2-c2ccccn2)c1OC1CCCC1` [Example 2, 2-[(E)-2-(2-Cyclopentyloxy-3-methoxyphenyl)vinyl]-1-pyridin-2-yl-1H-benzimidazole], the inhibition at 1 µM was found to be 3.64% and the inhibition at 10 µM came out at 85%.

Regarding `COc1cccc(/C=C/c2nc3ccc(OC(F)F)cc3n2-c2ccc(C#N)cn2)c1OC1CCCC1` [Example 58, 6-{6-(Difluoromethoxy)-2-[(E)-2-(2-[cyclopentyloxy]-3-methoxyphenyl)vinyl]-1H-benzimidazol-1-yl}nicotinonitrile], the inhibition at 1 µM was 96.3%, the inhibition at 10 µM stood at 97.9% and the IC50 fell in the range of 100 to 500 nM.

On to `COc1cccc(/C=C/c2nc3ccccc3n2-c2ccc(C#N)cn2)c1OC(C)C` [Example 9, 6-{2-[(E)-2-(2-Isopropoxy-3-methoxyphenyl)vinyl]-1H-benzimidazol-1-yl}nicotinonitrile], for which the inhibition at 1 µM stood at 79.7%, the inhibition at 10 µM is 97.9% and the IC50 was over 500 nM.

On to `COc1cccc(/C=C/c2nc3ccccc3n2Cc2ccc(C#N)cc2)c1OCC1CC1` [Example 42, 4-({2-[(E)-2-(2-Cyclopropylmethoxy-3-methoxyphenyl)vinyl]-1H-benzimidazol-1-yl}methyl)benzonitrile], for which the inhibition at 1 µM came to 60.2% and the inhibition at 10 µM came out at 87.3%.

As for `COc1cccc(/C=C/c2nc3ccccc3n2-c2ccc(C(F)(F)F)cn2)c1OCC1CC1` [Example 26], the inhibition at 1 µM is 70.6%, the inhibition at 10 µM came to 91.6% and the IC50 was over 500 nM.

For `CCCCOc1c(/C=C/c2nc3ccccc3n2-c2ccc(C#N)cn2)cccc1OC` [Example 8, 6-{2-[(E)-2-(2-Butoxy-3-methoxyphenyl)vinyl]-1H-benzimidazol-1-yl}nicotinonitrile], the inhibition at 1 µM was found to be 91.6%, the inhibition at 10 µM was found to be 97% and the IC50 fell in the range of 100 to 500 nM.

In the case of `COc1cccc(/C=C/c2nc3ccccc3n2-c2ccc(C)cc2)c1OCC1CC1` [Example 31, 2-[(E)-2-(2-Cyclopropylmethoxy-3-methoxyphenyl)vinyl]-1-(4-methylphenyl)-1H-benzimidazole], the inhibition at 1 µM came out at 47.3% and the inhibition at 10 µM amounted to 86.6%.

As to `COc1cccc(/C=C/c2nc3ccccc3n2-c2ccc(C#N)cc2)c1OCc1ccccc1` [Example 34, 4-{2-[(E)-2-(2-Benzyloxy-3-methoxyphenyl)vinyl]-1H-benzimidazol-1-yl}benzonitrile], the inhibition at 1 µM was determined as 69.9%, the inhibition at 10 µM came out at 86.8% and the IC50 was over 500 nM.

Consider `COc1cccc(/C=C/c2nc3cc(F)c(F)cc3n2-c2ccc(C(N)=O)nn2)c1OC1CCCC1` [Example 75, 6-{2-[(E)-2-(2-Cyclopentyloxy-3-methoxyphenyl)vinyl]-5,6-difluoro-1H-benzimidazol-1-yl}pyridazine-3-carboxamide], for which the inhibition at 1 µM is 34.4% and the inhibition at 10 µM worked out at 90.7%.

Regarding `COc1cccc(/C=C/c2nc3ccccc3n2Cc2ccc(C#N)cc2)c1OC1CCCC1` [Example 43, 4-({2-[(E)-2-(2-Cyclopentyloxy-3-methoxyphenyl)vinyl]-1H-benzimidazol-1-yl}methyl)benzonitrile], the inhibition at 1 µM was found to be 88.8%, the inhibition at 10 µM stood at 97.5% and the IC50 was in the range of 100 to 500 nM.

On to `COc1cccc(/C=C/c2nc3ccccc3n2-c2ccc(C#N)cc2F)c1OCC1CC1` [Example 39, 4-{2-[(E)-2-(2-Cyclopropylmethoxy-3-methoxyphenyl)vinyl]-1H-benzimidazol-1-yl}-3-fluorobenzonitrile], for which the inhibition at 1 µM is 76.8%, the inhibition at 10 µM amounted to 94.2% and the IC50 is 100 to 500 nM.

With `COc1cccc(/C=C/c2nc3ccccc3n2-c2ncc(Cl)cc2Cl)c1OCc1ccccc1F` [Example 6, 1-(3,5-Dichloropyridin-2-yl)-2-{(E)-2-[2-(2-fluorobenzyloxy)-3-methoxyphenyl]vinyl}-1H-benzimidazole], the inhibition at 1 µM came to 66.8%, the inhibition at 10 µM worked out at 89% and the IC50 was over 500 nM.
